Some results are limits rather than exact numbers.

In general, IC50 refers to the point on the concentration scale where inhibition reaches its midpoint.

Assay [1] deals with T1, potassium ion channel hERG (Homo sapiens, UniProt Q12809).
T1 construct: expressed in transfected cells; host or cells: Chinese hamster ovary K1 (CHO)
Description: Assay 5 hERG assay (patch clamp, CHO cells over-expressing hERG). In kind it is cell-based. Conditions: SyncroPatch 384PE, room temperature, geometric mean, read-out: Assay 5 (hERG Hu CHO if EPh CR-Syncro) GMean IC50. The gist of the method: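 hERG currents recorded by automated patch clamp at room temperature in CHO-K1 cells, 6-point cumulative concentrations. SyncroPatch runs used KF-based internal (pH 7.2) and NMDG-containing external solution (pH 7.4), 0.33% DMSO; QPatchII runs used 2% or 0.4% DMSO. Only wells meeting seal-resistance and current-size criteria kept.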
In general terms: The hERG channel carries a current that helps repolarise heart muscle cells.

The target in assay [2] is GSK3β (Glycogen synthase kinase-3 beta) (Homo sapiens, UniProt P49841). Nature of the assay: Assay 6 GSK3β assay (ThermoFisher Z-Lyte FRET). Type of assay: biochemical. The following applies: ATP Conc: 10 μM, geometric mean; read-out: Assay 6 (GSK3β FRET-Z-Lyte Cr) GMean IC50. An outline of the steps:
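Z-Lyte FRET: 0.22-0.92 ng kinase with 2 μM Ser/Thr 09 peptide in HEPES pH 7.5, MgCl2, EGTA, 60 min at room temperature, then 60 min development. Compounds in 1% DMSO, 10-point 3-fold series from 10 μM; sigmoidal dose-response fit.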

The target of assay [3] is T2, PCSK9 (Homo sapiens, UniProt Q8NBP7, G670E/V474I). Nature of the assay: biochemical.
Assay [4] deals with T2, PCSK9. Nature of the assay: Assay 3 PCSK9 LDL-C uptake assay in HepG2 cells. In kind it is cell-based. Further details: TEV site (C); His6 (C); host or cells: added to HepG2 (ATCC #HB-8065). The following applies: 125 nM PCSK9, pHrodo Red-LDL, read-out: Assay 3 LDL uptake potency. An outline of the steps: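 HepG2 cells were plated for 24 h, then exposed for 24 h at 37 °C to compounds (half-log series, 10 μM top) with 125 nM exogenous PCSK9. pHrodo Red-LDL ([…]) uptake was then imaged by fluorescence at 4 h and 24 h. Signal was normalized as % effect between DMSO and 100 nM evolocumab, with a four-parameter logistic fit.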

T2 sequence (Q8NBP7 with tags, fused parts or gaps V474I/G670E): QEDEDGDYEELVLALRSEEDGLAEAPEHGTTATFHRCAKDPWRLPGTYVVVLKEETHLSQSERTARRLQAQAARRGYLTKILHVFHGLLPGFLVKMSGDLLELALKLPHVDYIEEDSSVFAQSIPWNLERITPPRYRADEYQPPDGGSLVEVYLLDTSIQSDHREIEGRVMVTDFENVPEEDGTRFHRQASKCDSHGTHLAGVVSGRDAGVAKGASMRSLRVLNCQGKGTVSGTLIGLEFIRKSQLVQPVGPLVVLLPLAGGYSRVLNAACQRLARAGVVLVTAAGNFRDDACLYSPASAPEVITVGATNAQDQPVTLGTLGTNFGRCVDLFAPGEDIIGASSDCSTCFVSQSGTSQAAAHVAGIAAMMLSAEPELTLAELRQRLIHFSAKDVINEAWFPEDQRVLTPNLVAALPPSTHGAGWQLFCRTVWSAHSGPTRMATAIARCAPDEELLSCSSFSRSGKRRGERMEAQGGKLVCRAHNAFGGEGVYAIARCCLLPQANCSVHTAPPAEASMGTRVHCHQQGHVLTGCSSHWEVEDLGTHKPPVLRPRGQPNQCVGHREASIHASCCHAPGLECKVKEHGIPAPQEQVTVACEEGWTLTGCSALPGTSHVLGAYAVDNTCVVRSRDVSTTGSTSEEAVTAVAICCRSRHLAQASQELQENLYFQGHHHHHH
Chain of GSK3β (Glycogen synthase kinase-3 beta) (P49841 whole entry): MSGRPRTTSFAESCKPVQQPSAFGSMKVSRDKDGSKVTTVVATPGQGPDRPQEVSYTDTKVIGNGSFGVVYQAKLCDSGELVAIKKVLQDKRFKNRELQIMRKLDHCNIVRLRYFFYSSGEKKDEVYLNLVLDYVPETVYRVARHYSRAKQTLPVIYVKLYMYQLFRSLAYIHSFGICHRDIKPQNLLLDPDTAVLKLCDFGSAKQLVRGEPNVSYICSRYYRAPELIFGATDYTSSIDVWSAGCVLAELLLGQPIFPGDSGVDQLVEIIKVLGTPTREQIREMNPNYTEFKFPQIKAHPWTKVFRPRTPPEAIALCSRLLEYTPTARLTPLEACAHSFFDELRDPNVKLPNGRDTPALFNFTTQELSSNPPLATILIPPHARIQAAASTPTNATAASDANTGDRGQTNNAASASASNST
T1 sequence (Q12809 whole entry): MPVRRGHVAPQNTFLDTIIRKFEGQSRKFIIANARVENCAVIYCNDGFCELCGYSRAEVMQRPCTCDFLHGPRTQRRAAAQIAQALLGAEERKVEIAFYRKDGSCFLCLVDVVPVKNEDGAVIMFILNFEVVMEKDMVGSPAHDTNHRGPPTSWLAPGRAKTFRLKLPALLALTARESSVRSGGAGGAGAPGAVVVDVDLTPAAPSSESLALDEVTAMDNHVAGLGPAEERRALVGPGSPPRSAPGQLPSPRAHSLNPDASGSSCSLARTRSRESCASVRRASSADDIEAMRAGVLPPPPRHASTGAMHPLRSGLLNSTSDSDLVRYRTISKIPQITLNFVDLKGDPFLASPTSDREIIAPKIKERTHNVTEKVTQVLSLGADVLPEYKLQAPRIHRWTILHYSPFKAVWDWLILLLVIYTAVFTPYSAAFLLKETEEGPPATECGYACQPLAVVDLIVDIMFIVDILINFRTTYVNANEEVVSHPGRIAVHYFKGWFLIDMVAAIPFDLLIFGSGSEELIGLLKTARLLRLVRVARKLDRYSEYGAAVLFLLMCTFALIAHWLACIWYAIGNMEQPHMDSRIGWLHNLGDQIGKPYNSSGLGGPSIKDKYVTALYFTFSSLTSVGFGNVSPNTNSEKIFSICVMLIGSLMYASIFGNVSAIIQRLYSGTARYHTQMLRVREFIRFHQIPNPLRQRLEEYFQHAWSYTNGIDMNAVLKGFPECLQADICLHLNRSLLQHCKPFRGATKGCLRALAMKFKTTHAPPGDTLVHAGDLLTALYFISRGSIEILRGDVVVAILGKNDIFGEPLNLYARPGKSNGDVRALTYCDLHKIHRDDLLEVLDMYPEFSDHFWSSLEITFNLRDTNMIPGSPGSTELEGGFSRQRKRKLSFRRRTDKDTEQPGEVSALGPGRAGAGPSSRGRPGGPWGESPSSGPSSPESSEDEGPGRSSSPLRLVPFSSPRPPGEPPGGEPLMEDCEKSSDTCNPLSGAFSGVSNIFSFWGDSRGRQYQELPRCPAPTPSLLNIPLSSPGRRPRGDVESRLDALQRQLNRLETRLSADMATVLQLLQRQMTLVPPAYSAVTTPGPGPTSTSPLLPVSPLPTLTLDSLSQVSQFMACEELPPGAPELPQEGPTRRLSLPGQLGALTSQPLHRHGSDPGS

In the case of `N#Cc1ccc(=O)n(-c2ccc(N[C@H]3CC[C@H](Nc4ncc(C5CC5)nn4)C3)nc2)c1` [Example 56, 6′-(((1S,3S)-3-((6-Cyclopropyl-1,2,4-triazin-3-yl)amino)cyclopentyl)amino)-2-oxo-2H-[1,3′-bipyridine]-5-carbonitrile], the figures for the IC50 in assay [1], in assay [2] and in assay [3] were 34.9 µM, over 10 µM and 0.009 µM, respectively. The EC50 in assay [4] was found to be 0.3 µM.

Regarding `O=c1c(OC(F)(F)F)cccn1-c1ccc(N[C@H]2CC[C@H](Nc3ncc(C4CC4)nn3)C2)nc1` [Example 52, 6′-(((1S,3S)-3-((6-Cyclopropyl-1,2,4-triazin-3-yl)amino)cyclopentyl)amino)-3-(trifluoromethoxy)-2H-[1,3′-bipyridin]-2-one], the half-inhibitory concentration (IC50) is 39.9 µM in assay [1], over 10 µM in assay [2] and 0.0023 µM in assay [3]. For the same compound, the EC50 in assay [4] was 0.1 µM.

Regarding `O=c1c(Cl)cccn1-c1ccc(N[C@H]2CC[C@H](Nc3ncc(C4CC4)nn3)C2)nc1` [Example 55, 3-Chloro-6′-(((1S,3S)-3-((6-cyclopropyl-1,2,4-triazin-3-yl)amino)cyclopentyl)amino)-2H-[1,3′-bipyridin]-2-one], the IC50 is 30.3 µM in assay [1], 1.6 µM in assay [2] and 0.001 µM in assay [3]. Also, in assay [4], the EC50 amounted to 0.1 µM.

As to `O=C(NC1COC1)c1cnc(N[C@H]2CC[C@H](Nc3ccc(-n4ccccc4=O)cn3)C2)nn1` [Example 70, N-(Oxetan-3-yl)-3-(((1S,3S)-3-((2-oxo-2H-[1,3′-bipyridin]-6′-yl)amino)cyclopentyl)amino)-1,2,4-triazine-6-carboxamide], the IC50 in assay [1] is over 40 µM; in assay [2], over 10 µM; in assay [3], 0.019 µM. In assay [4], the EC50 was 0.2 µM.

As to `COc1ccc(=O)n(-c2ccc(N[C@H]3CC[C@H](Nc4ncc(C5CC5)nn4)C3)nc2)c1` [Example 65, 6′-(((1S,3S)-3-((6-Cyclopropyl-1,2,4-triazin-3-yl)amino)cyclopentyl)amino)-5-methoxy-2H-[1,3′-bipyridin]-2-one], the figures for the IC50 in assay [1], in assay [2] and in assay [3] were 38.8 µM, 0.014 µM and 0.0118 µM, respectively. Further, in assay [4], the EC50 was 0.5 µM.

`O=c1ccccn1-c1ccc(N[C@H]2CC[C@H](Nc3ncc(C4CC4)nn3)C2)nc1` [Example 50, 6′-(((1S,3S)-3-((6-Cyclopropyl-1,2,4-triazin-3-yl)amino)cyclopentyl)amino)-2H-[1,3′-bipyridin]-2-one]: the half-maximal inhibitory concentration (IC50) in assay [1] was over 40 µM; in assay [2] it was over 10 µM; in assay [3], 0.008 µM. For the same compound, in assay [4], the EC50 is 0.3 µM.

With `Cc1cnc(N[C@H]2CC[C@H](Nc3ccc(-n4cccc(OC(F)F)c4=O)cn3)C2)nn1` [Example 187, 3-(Difluoromethoxy)-6′-(((1S,3S)-3-((6-methyl-1,2,4-triazin-3-yl)amino)cyclopentyl)amino)-2H-[1,3′-bipyridin]-2-one], the IC50 in assay [1] was over 40.1 µM; in assay [2] it was 3.78 µM; in assay [3] it was 0.0021 µM. In assay [4], the EC50 is 0.1 µM.

On to `Cc1cnc(N[C@H]2CC[C@H](Nc3ccc(-n4c(=O)n(C)c5cccnc54)cn3)C2)nn1` [Example 212, 1-Methyl-3-(6-(((1S,3S)-3-((6-methyl-1,2,4-triazin-3-yl)amino)cyclopentyl)amino)pyridin-3-yl)-1,3-dihydro-2H-imidazo[4,5-b]pyridin-2-one], for which the IC50 in assay [1] is over 40.1 µM; in assay [2], over 10 µM; in assay [3] it was 0.0018 µM. Further, the EC50 in assay [4] amounted to 0.1 µM.

Regarding `Cc1cnc(N[C@H]2CC[C@H](Nc3ccc(-n4cc(C#N)ccc4=O)cn3)C2)nn1` [Example 128, 6′-(((1S,3S)-3-((6-Methyl-1,2,4-triazin-3-yl)amino)cyclopentyl)amino)-2-oxo-2H-[1,3′-bipyridine]-5-carbonitrile], the IC50 in assay [1] is over 40 µM; in assay [2], over 10 µM; in assay [3], 0.02 µM. The EC50 in assay [4] was found to be 0.8 µM.

As to `C#CCNC(=O)c1cnc(N[C@H]2CC[C@H](Nc3ccc(-n4ccccc4=O)cn3)C2)nn1` [Example 69, 3-(((1S,3S)-3-((2-Oxo-2H-[1,3′-bipyridin]-6′-yl)amino)cyclopentyl)amino)-N-(prop-2-yn-1-yl)-1,2,4-triazine-6-carboxamide], the figures for the IC50 in assay [1], in assay [2] and in assay [3] were over 40 µM, over 10 µM and 0.02 µM, respectively. The EC50 in assay [4] was found to be 0.2 µM.

As to `Cn1c(=O)n(-c2ccc(N[C@H]3CC[C@H](Nc4ncc(C5CC5)nn4)C3)nc2)c2ccc(C#N)cc21` [Example 117, 1-(6-(((1S,3S)-3-((6-Cyclopropyl-1,2,4-triazin-3-yl)amino)cyclopentyl)amino)pyridin-3-yl)-3-methyl-2-oxo-2,3-dihydro-1H-benzo[d]imidazole-5-carbonitrile], the IC50 was 6.3 µM in assay [1], over 10 µM in assay [2] and 0.001 µM in assay [3]. In addition, the EC50 in assay [4] was determined as 0.3 µM.

Consider `Cn1c(=O)n(-c2ccc(N[C@H]3CC[C@H](Nc4ncc(C5CC5)nn4)C3)nc2)c2ccc(C(=O)O)cc21` [Example 121, 1-(6-(((1S,3S)-3-((6-Cyclopropyl-1,2,4-triazin-3-yl)amino)cyclopentyl)amino)pyridin-3-yl)-3-methyl-2-oxo-2,3-dihydro-1H-benzo[d]imidazole-5-carboxylic acid], for which the IC50 in assay [1] is over 40 µM; in assay [2], 5.05 µM; in assay [3], 0.001 µM. In assay [4], the EC50 is 0.1 µM.

Take `CNC(=O)c1cnc(N[C@H]2CC[C@H](Nc3ccc(-n4ccccc4=O)cn3)C2)nn1` [Example 75, N-Methyl-3-(((1S,3S)-3-((2-oxo-2H-[1,3′-bipyridin]-6′-yl)amino)cyclopentyl)amino)-1,2,4-triazine-6-carboxamide]: the IC50 in assay [1] was over 40 µM; in assay [2], over 10 µM; in assay [3] it was 0.033 µM. In addition, the EC50 in assay [4] worked out at 0.7 µM.

With `Cc1cnc(N[C@H]2CC[C@H](Nc3ccc(-n4ccccc4=O)cn3)C2)nn1` [Example 67, 6′-(((1S,3S)-3-((6-Methyl-1,2,4-triazin-3-yl)amino)cyclopentyl)amino)-2H-[1,3′-bipyridin]-2-one], the values for the IC50 in assay [1], in assay [2] and in assay [3] were over 40 µM, 2.1 µM and 0.016 µM, respectively. Moreover, in assay [4], the EC50 was 0.6 µM.

In the case of `O=c1cccnn1-c1ccc(N[C@H]2CC[C@H](Nc3ncc(C4CC4)nn3)C2)nc1` [Example 118], the IC50 in assay [1] is over 40 µM; in assay [2], over 10 µM; in assay [3] it was 0.0074 µM. Further, the EC50 in assay [4] turned out to be 0.5 µM.
